The text below walks through data of patent US10513694B2, “Thienopyrrole compounds and uses thereof” (PROMEGA CORPORATION, priority 2015, dated 2019).

For series [1], the target named is T1, Nluc (Oplophorus gracilirostris, UniProt Q9GV45, A31E/A60N/A81I/F95D/I117V/K70R/L54V/L99Q/M102K/N193R/P142E/Q151K/Q38R/Q45L/V71I/Y165I). The series can be described thus: Specificity of inhibition of Nluc luciferase: Nluc. Type of series: biochemical.
Series [2] deals with T1, Nluc. The series can be described thus: Multiplex RealTime-Glo / Caspase-Glo 3/7 in DMEM media. Set-up: purchased Promega Corporation. The conditions noted are these: for Avg (luminescence), 1 hour: RealTime-Glo reagent in DMEM + Caspase-Glo 3/7. Type of series: biochemical. The protocol:
In a Corning 3570 assay plate, 1× REAL-TIME-GLO™ MT Cell Viability assay reagent was prepared in 40 μL DMEM media (n=3) and incubated overnight. Next, 40 μL of a titration of JRW-0147 or JRW-0344 (2× concentration in CASPASE-GLO® 3/7 Assay Reagent (Promega Corporation)) was added. The reactions were incubated at room temperature, and luminescence determined at 1 hour.

Series [3] has as its system firefly luciferase, e.g., ULTRAGLO® luciferase. As to the kind of experiment: Specificity of inhibition: firefly luciferase activity. Type of series: biochemical. As to conditions: 1 μM luciferin in Luciferase Detection Reagent; RT 2 hrs. As for the experimental part: The following example describes the specificity of disclosed thienopyrrole compounds, JRW-0004, JRW-0013, JRW-0006, JRW-0042, JRW-0138, and JRW-0147, to inhibit Nluc luciferase activity versus firefly luciferase activity, e.g., ULTRAGLO® luciferase. In a Corning 3570 assay plate, a solution containing 1 μM luciferin in Luciferase Detection Reagent (Promega Corporation V865/859) was added to the assay wells. An equal volume of titrations the thienopyrrole compounds, JRW-0004, JRW-0013, JRW-0006, JRW-0042, JRW-0138, and JRW-0147 were then added to the wells. The reactions were incubated at RT for 2 hrs, and luminescence was measured on Tecan M1000 Pro plate reader.

The test system of series [4] is Nluc-HALOTAG labeled with NANOBRET 618 ligand. The series can be described thus: Inhibition of extracellular BRET. Type of series: cell-based. As to conditions: HEK293 Nluc-HDAC6; 10 ng/mL extracellular Nluc-HALOTAG/NANOBRET 618; 2 hrs. The protocol:
HEK293 were transiently transfected with an Nluc-HDAC6 fusion protein to orient Nluc-HDAC6 inside the cell. 24 hrs post-transfection, cells were treated 10 ng/mL purified Nluc-HALOTAG labeled with NANOBRET 618 ligand to simulate spurious extracellular BRET. Cells were then exposed to a compound response curve of the thienopyrrole compounds, JRW-0013, JRW-0051, JRW-0147, and JRW-0187, for 2 hrs. 10 μM furimazine was then added, and BRET ratio 610/450 nm was measured.
A general note: In BRET a luciferase serves as donor, and the signal depends on an acceptor being close.

Series [5] has as its target T2, purified Nluc (extracellular); Nluc-HALOTAG fusion protein (intracellular) (Oplophorus gracilirostris, UniProt Q9GV45, A31E/A60N/A81I/F95D/I117V/K70R/L54V/L99Q/M102K/N193R/P142E/Q151K/Q38R/Q45L/V71I/Y165I).
T2 construct: expressed in transfected cells; host or cells: HEK293 (Nluc-HaloTag); purified Nluc added from outside
As to the kind of experiment: Inhibition of extracellular luciferase activity and enhancement of intracellular BRET. Type of series: cell-based. As to conditions: HEK293 Nluc-HALOTAG + NANOBRET 618; 10 ng/mL extracellular purified Nluc; 2 hrs. The protocol:
HEK293 were transiently transfected with Nluc-HALOTAG fusion protein to orient Nluc-HALOTAG inside the cell. 24 hrs post-transfection, cells were labeled with NANOBRET 618 ligand to simulate specific intracellular BRET. Cells were then treated 10 ng/mL purified Nluc to simulate spurious extracellular luminescence. Cells were exposed to a compound response curve of the thienopyrrole compounds, JRW-0013, JRW-0051, JRW-0147, and JRW-0187, for 2 hrs. 10 μM furimazine was added, and the BRET ratio 610/450 nm was measured.

A further series concerns the target Nluc luciferase (Oplophorus gracilirostris, UniProt Q9GV45, A31E/A60N/A81I/F95D/I117V/K70R/L54V/L99Q/M102K/N193R/P142E/Q151K/Q38R/Q45L/V71I/Y165I). Type of series: cell-based. As to conditions: HEK293; 10, 30 or 120 minutes. Set-up: expressed in transfected cells; host or cells: HEK293. As for the experimental part:
HEK293 cells were transiently transfected with Nluc luciferase to express it cytosolically. Twenty-four hours post-transfection, cells were exposed to a compound response curve of the thienopyrrole compound JRW-0147 or JRW-0013 for 10 minutes, 30 minutes, or 120 minutes. 10 μM furimazine was then added, and luminescence was measured.

Entries after “also recorded” stand apart in the source; their conditions may differ.

T1 sequence (Q9GV45 28-196 with tags or gaps with the stated changes limits assumed): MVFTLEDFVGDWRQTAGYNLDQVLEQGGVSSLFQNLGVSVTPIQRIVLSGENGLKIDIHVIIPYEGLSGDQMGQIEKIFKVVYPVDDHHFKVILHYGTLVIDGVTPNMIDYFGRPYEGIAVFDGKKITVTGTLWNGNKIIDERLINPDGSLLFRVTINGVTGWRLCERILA
Sequence of Nluc luciferase (Q9GV45 28-196 with tags or gaps with the stated changes limits assumed): as above
T2 sequence (Q9GV45 28-196 with tags or gaps with the stated changes limits assumed): as above

Turning to `CCN(C(=O)Cn1c(C(=O)N[C@H]2CC[C@H](C(=O)NCCCCCCS(=O)(=O)[O-])CC2)cc2sccc21)c1cccc(C)c1.[Na+]` [JRW-0344, Sodium 6-(trans-4-(4-(2-(ethyl(m-tolyl)amino)-2-oxoethyl)-4H-thieno[3,2-b]pyrrole-5-carboxamido)cyclohexane-1-carboxamido)hexane-1-sulfonate], the “Nluc, Avg (luminescence)” value turned out to be 102409 at Nluc [1] ([cmpd] 0.1953125 μM); 99851 at Nluc [1] ([cmpd] 0.390625 μM); 95060 at Nluc [1] ([cmpd] 0.78125 μM); 83141 on Nluc [1] ([cmpd] 1.5625 μM); 71976 at Nluc [1] ([cmpd] 3.125 μM); 65136 at Nluc [1] ([cmpd] 6.25 μM). Moreover, the “Nluc, Avg (luminescence)” value turned out to be 52627 at Nluc [1] ([cmpd] 12.5 μM); 40392 on Nluc [1] ([cmpd] 25 μM); 32113 at Nluc [1] ([cmpd] 50 μM); 23445 at Nluc [1] ([cmpd] 100 μM); 16291 on Nluc [1] ([cmpd] 200 μM). The “Nluc, S/B” value at Nluc [1] ([cmpd] 0.1953125 μM) was determined as 0.92; at Nluc [1] ([cmpd] 0.390625 μM) it was 0.90; on Nluc [1] ([cmpd] 0.78125 μM), 0.86; at Nluc [1] ([cmpd] 1.5625 μM), 0.75; on Nluc [1] ([cmpd] 3.125 μM) it was 0.65; at Nluc [1] ([cmpd] 6.25 μM), 0.59. In addition, the “Nluc, S/B” value at Nluc [1] ([cmpd] 12.5 μM) was found to be 0.47; at Nluc [1] ([cmpd] 25 μM), 0.36; at Nluc [1] ([cmpd] 50 μM), 0.29; on Nluc [1] ([cmpd] 100 μM), 0.21; on Nluc [1] ([cmpd] 200 μM), 0.15. Also, the “S/B, 1 hour” value on Nluc [2] ([cmpd] final 0.09765625 μM) was determined as 0.71; at Nluc [2] ([cmpd] final 0.1953125 μM), 0.80; on Nluc [2] ([cmpd] final 0.390625 μM), 0.88; at Nluc [2] ([cmpd] final 0.78125 μM) it was 0.61; on Nluc [2] ([cmpd] final 1.5625 μM) it was 0.41; at Nluc [2] ([cmpd] final 3.125 μM), 0.21. The “S/B, 1 hour” value at Nluc [2] ([cmpd] final 6.25 μM) was found to be 0.12; at Nluc [2] ([cmpd] final 12.5 μM), 0.10; on Nluc [2] ([cmpd] final 25 μM) it was 0.06; on Nluc [2] ([cmpd] final 50 μM), 0.04; on Nluc [2] ([cmpd] final 100 μM) it was 0.03. In addition, the “Avg (luminescence), 1 hour” value at Nluc [2] ([cmpd] final 0.09765625 μM) is reported as 112533; at Nluc [2] ([cmpd] final 0.1953125 μM), 126333; at Nluc [2] ([cmpd] final 0.390625 μM) it was 138900; at Nluc [2] ([cmpd] final 0.78125 μM), 95993; at Nluc [2] ([cmpd] final 1.5625 μM) it was 65097; on Nluc [2] ([cmpd] final 3.125 μM), 33523. Moreover, the “Avg (luminescence), 1 hour” value at Nluc [2] ([cmpd] final 6.25 μM) is listed as 19560; at Nluc [2] ([cmpd] final 12.5 μM), 15547; on Nluc [2] ([cmpd] final 25 μM), 9761; on Nluc [2] ([cmpd] final 50 μM), 6790; at Nluc [2] ([cmpd] final 100 μM), 5523.
Consider `CCN(C(=O)Cn1c(C(=O)N[C@H]2CC[C@H](C(=O)OC)CC2)cc2sccc21)c1cccc(C)c1` [JRW-0013, trans-methyl-4-(4-(2-(ethyl(m-tolyl)amino)-2-oxoethyl)-4H-thieno[3,2-b]pyrrole-5-carboxamido)cyclohexane-1-carboxylate], for which the “Inhibition of firefly luciferase activity (FIG. 3)” value in series [3] is reported as “do not inhibit firefly luciferase activity; also recorded: did not inhibit the firefly luciferase activity”. In addition, the “BRET ratio 610/450 nm across compound dose-response curve (FIGS. 12B-12E)” value in series [4] is listed as “BRET ratio remained constant”. The “BRET ratio 610/450 nm across compound dose-response curve (FIGS. 13B-13E)” value in series [5] is “BRET ratio remained constant”. The “Change in RLUs from cytosolic Nluc (FIG. 16)” value at Nluc luciferase was “decrease the RLUs from Nluc in a dose-dependent manner independent of time”.
